From patent publication EP4471048A1, “PEPTIDE INHIBITORS OF INTERLEUKIN-23 RECEPTOR” (Zealand Pharma A/S, priority 2023, dated 2024)
*1 amine or outer side, *2 acyl side, *3 side chain or, on linkers, in order; H or OH if unused. Where a SMILES comes first, the peptide text is derived from it. Bridges are numbered along the chain shown (N, C = ends). [ ]: non-standard residue; d: D form. The star is where a group is joined. NH(4-(3-pyridyl)butyl) = c1cncc(CCCCN*)c1; X14 = O=C(CC[C@H](N[*:2])C(=O)[*:3])[*:1]; X17 = O=C(C[C@@H](CCCN[*:3])N[*:2])[*:1]; NH(2-(3-pyridyl)ethyl) = c1cncc(CCN*)c1; 2Nal = N[C@@H](Cc1ccc2ccccc2c1)C(=O)O; AEF = NCCOc1ccc(C[C@H](N)C(=O)O)cc1; 3Pal = N[C@@H](Cc1cccnc1)C(=O)O; β3hE = N[C@@H](CCC(=O)O)CC(=O)O; αMeL = CC(C)C[C@](C)(N)C(=O)O; Dab = NCC[C@H](N)C(=O)O

Target: T1, human IL-23R (Homo sapiens, UniProt Q5VWK5)
T1 sequence (Q5VWK5 22-629): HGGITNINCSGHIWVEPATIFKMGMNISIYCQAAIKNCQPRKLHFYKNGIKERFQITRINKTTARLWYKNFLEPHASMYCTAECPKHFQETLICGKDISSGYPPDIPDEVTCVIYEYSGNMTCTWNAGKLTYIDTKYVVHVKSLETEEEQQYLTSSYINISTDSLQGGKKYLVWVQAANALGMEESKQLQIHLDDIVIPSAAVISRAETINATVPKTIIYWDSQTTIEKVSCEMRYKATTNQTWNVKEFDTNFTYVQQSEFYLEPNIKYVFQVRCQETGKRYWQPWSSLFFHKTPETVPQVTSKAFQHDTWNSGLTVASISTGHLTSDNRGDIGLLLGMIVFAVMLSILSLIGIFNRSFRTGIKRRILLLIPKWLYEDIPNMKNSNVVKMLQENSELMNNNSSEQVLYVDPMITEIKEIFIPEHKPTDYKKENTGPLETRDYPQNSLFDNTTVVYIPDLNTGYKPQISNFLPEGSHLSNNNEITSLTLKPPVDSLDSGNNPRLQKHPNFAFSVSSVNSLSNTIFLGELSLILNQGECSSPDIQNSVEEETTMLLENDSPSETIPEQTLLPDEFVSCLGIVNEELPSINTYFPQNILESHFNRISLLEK
Experiment: biochemical
Conditions: for Emax: read-out: % displacement (hIL-23R NIuc)
Summary of the method: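 BRET displacement of a TAMRA-labelled reference compound from N-terminal Nanoluc-IL-23R fusion protein in membranes from stably transfected HEK293 cells. Incubation 2 h at room temperature, then Nanoluc substrate was added and the TAMRA/Nanoluc ratio read. IC50 and maximal displacement came from 4-parameter logistic fits.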

| SMILES | IC50 [nM] | Emax [%] | % displacement (hIL-23R NIuc) [%] |
| --- | --- | --- | --- |
| COc1ccc(C[C@@H]2NC(=O)[C@@H]3CCC(=O)N[C@@H](CCCCNC(=O)CC[C@@H](C(=O)N[C@@H](CCCCNC(=O)Cc4ncc[nH]4)C(N)=O)NC(=O)[C@](C)(CC(C)C)NC(=O)[C@H](Cc4ccc5ccccc5c4)NC2=O)C(=O)N[C@@H]([C@@H](C)O)C(=O)N[C@@H](C(C)C)C(=O)N[C@@H](Cc2c[nH]c4ccccc24)C(=O)N[C@@H](CCC(N)=O)C(=O)N3)cc1 [Compound 58, K(1c)(6c)^†TVWQE(6c)[Y(Me)][2-Nal][2-Me-Leu]E(1c)[K(Imidazoleacetyl)]-[NH2]] | 550 | – | – |
| CNC(=O)[C@H](Cc1cccnc1)NC(=O)[C@H](Cc1ccncc1)NC(=O)[C@@H]1CCC(=O)NCCCC[C@@H]2NC(=O)CC[C@H](NC(=O)[C@H](CCC(N)=O)NC(=O)[C@H](Cc3c[nH]c4ccccc34)NC(=O)CCNC2=O)C(=O)N[C@@H](Cc2ccc(OCCN)cc2)C(=O)N[C@@H](Cc2ccc3ccccc3c2)C(=O)N[C@@](C)(CC(C)C)C(=O)N1 [Compound 89, K(1c)(6c)^†[3-Aminopropanoyl]WQE(6c)[Y(2-aminoethoxy)][2-Nal][2-Me-Leu]E(1 c)[3-(4-Pyridyl)-Ala][3-(3-Pyridyl)-Ala]-[NHMe]] | 0.04 | 100 | – |
| CNC(=O)[C@H](Cc1cccnc1)NC(=O)[C@H](CCN)NC(=O)[C@@H]1CCCNC(=O)CC[C@@H]2NC(=O)CC[C@H](NC(=O)[C@H](CCC(N)=O)NC(=O)[C@H](Cc3c[nH]c4ccccc34)NC(=O)[C@H]([C@@H](C)O)NC2=O)C(=O)N[C@@H](Cc2ccc(OCCN)cc2)C(=O)N[C@@H](Cc2ccc3ccccc3c2)C(=O)N[C@@](C)(CC(C)C)C(=O)N1 [Compound 40, E(1c)(6c)^†TWQE(6c)[Y(2-aminoethoxy)][2-Nal][2-Me-Leu][Orn](1c)[Dab][3-(3-Pyridyl)-Ala]-[NHMe]] | – | 100 | – |
| COc1ccc(C[C@@H]2NC(=O)[C@@H]3CCC(=O)N[C@@H](CCCCNC(=O)CC[C@@H](C(=O)N[C@@H](CCCCNC(=O)Cc4cccnc4)C(N)=O)NC(=O)[C@](C)(CC(C)C)NC(=O)[C@H](Cc4ccc5ccccc5c4)NC2=O)C(=O)N[C@@H]([C@@H](C)O)C(=O)N[C@@H](C(C)C)C(=O)N[C@@H](Cc2c[nH]c4ccccc24)C(=O)N[C@@H](CCC(N)=O)C(=O)N3)cc1 [Compound 51, K(1c)(6c)^†TVWQE(6c)[Y(Me)][2-Nal][2-Me-Leu]E(1c)[K(3-pyridylacetyl)]-[NH2]] | 300 | 102 | – |
| CC(C)[C@@H]1NC(=O)[C@H]([C@@H](C)O)NC(=O)[C@@H]2CCCCNC(=O)CC[C@@H]3NC(=O)[C@H](CCCCNC(=O)[C@H](Cc4cccnc4)NC(=O)[C@H](CCN)NC3=O)NC(=O)[C@H](Cc3ccc4ccccc4c3)NC(=O)[C@H](Cc3ccc(OCCN)cc3)NC(=O)[C@H](CCC(=O)N2)NC(=O)[C@H](CCC(N)=O)NC(=O)[C@H](Cc2c[nH]c3ccccc23)NC1=O [Compound 77, K(1c)(6c)^†TVWQE(6c)[Y(2-aminoethoxy)][2-Nal]K(7c)E(1c)[Dab][3-(3-Pyridyl)-Ala](7c)^‡] | 9.9 | 97 | – |
| CC(C)[C@@H]1NC(=O)[C@H](CO)NC(=O)[C@@H]2CCCCNC(=O)CC[C@@H](C(=O)NCCCCc3cccnc3)NC(=O)CNC(=O)[C@H](Cc3ccc4ccccc4c3)NC(=O)[C@H](Cc3ccc(OCCN)cc3)NC(=O)[C@H](CCC(=O)N2)NC(=O)[C@H](CCC(N)=O)NC(=O)[C@H](Cc2c[nH]c3ccccc23)NC1=O [Compound 31, K(1c)(6c)^†SVWQE(6c)[Y(2-aminoethoxy)][2-Nal]GE(1c)-[NH-4-(pyridin-3-yl)butanyl]] (KSVWQE[AEF][2Nal]GE-{NH(4-(3-pyridyl)butyl)}; lactam 1-10, N-6) | – | – | 98 |
| CNC(=O)[C@H](Cc1cccnc1)NC(=O)[C@H](Cc1ccccn1)NC(=O)[C@@H]1CCC(=O)NCCCC[C@@H]2NC(=O)CC[C@H](NC(=O)[C@H](CCC(N)=O)NC(=O)[C@H](Cc3c[nH]c4ccccc34)NC(=O)CCNC2=O)C(=O)N[C@@H](Cc2ccc(OCCN)cc2)C(=O)N[C@@H](Cc2ccc3ccccc3c2)C(=O)N[C@@](C)(CC(C)C)C(=O)N1 [Compound 88, K(1c)(6c)^†[3-Aminopropanoyl]WQE(6c)[Y(2-aminoethoxy)][2-Nal][2-Me-Leu]E(1 c)[3-(2-Pyridyl)-Ala][3-(3-Pyridyl)-Ala]-[NHMe]] | 0.052 | 100 | – |
| COc1ccc(C[C@@H]2NC(=O)[C@@H]3CCC(=O)N[C@@H](CCCCNC(=O)CC[C@@H](C(=O)N[C@@H](CCCCNC(=O)CCc4ccccn4)C(N)=O)NC(=O)[C@](C)(CC(C)C)NC(=O)[C@H](Cc4ccc5ccccc5c4)NC2=O)C(=O)N[C@@H]([C@@H](C)O)C(=O)N[C@@H](C(C)C)C(=O)N[C@@H](Cc2c[nH]c4ccccc24)C(=O)N[C@@H](CCC(N)=O)C(=O)N3)cc1 [Compound 49, K(1c)(6c)^†TVWQE(6c)[Y(Me)][2-Nal][2-Me-Leu]E(1c)[K(2-pyridylpropionyl)]-[NH2]] | 820 | 96 | – |
| CNC(=O)[C@H](Cc1cccnc1)NC(=O)[C@H](CCN)NC(=O)[C@@H]1CCC(=O)NCCCC[C@@H]2NC(=O)CC[C@H](NC(=O)[C@H](CCC(N)=O)NC(=O)[C@H](Cc3c[nH]c4ccccc34)NC(=O)C[C@H]([C@@H](C)O)NC2=O)C(=O)N[C@@H](Cc2ccc(OCCN)cc2)C(=O)N[C@@H](Cc2ccc3ccccc3c2)C(=O)N[C@@](C)(CC(C)C)C(=O)N1 [Compound 97, K(1c)(6c)^†[beta-hThr]WQE(6c)[Y(2-aminoethoxy)][2-Nal][2-Me-Leu]E(1c)[Dab][3-(3-Pyridyl)-Ala]-[NHMe]] | 0.061 | – | 101 |
| CNC(=O)[C@H](Cc1cccnc1)NC(=O)[C@H](CCN)NC(=O)[C@@H]1CCNC(=O)[C@@H]2CCC(=O)N[C@@H](Cc3c[nH]c4ccccc34)C(=O)N[C@@H](CCC(N)=O)C(=O)N[C@@H](CCC(=O)N2)C(=O)N[C@@H](Cc2ccc(OCCN)cc2)C(=O)N[C@@H](Cc2ccc3ccccc3c2)C(=O)N[C@@](C)(CC(C)C)C(=O)N1 [Compound 107, [iso-Glu](1c)^‡(6c)^†WQE(6c)[Y(2-aminoethoxy)][2-Nal][2-Me-Leu][Dab](1c)[Dab][3-(3-Pyridyl)-Ala]-[NHMe]] (WQE[AEF][2Nal][αMeL][Dab][Dab][3Pal]-NHMe; linker N-3-7 via X14) | – | 97 | – |
| COc1ccc(C[C@@H]2NC(=O)[C@@H]3CCC(=O)N[C@@H](CCCCNC(=O)CC[C@@H](C(=O)N[C@@H](CCCCNC(=O)c4ccccn4)C(N)=O)NC(=O)[C@](C)(CC(C)C)NC(=O)[C@H](Cc4ccc5ccccc5c4)NC2=O)C(=O)N[C@@H]([C@@H](C)O)C(=O)N[C@@H](C(C)C)C(=O)N[C@@H](Cc2c[nH]c4ccccc24)C(=O)N[C@@H](CCC(N)=O)C(=O)N3)cc1 [Compound 47, K(1c)(6c)^†TVWQE(6c)[Y(Me)][2-Nal][2-Me-Leu]E(1c)[K(piconilate)]-[NH2]] | 730 | 99 | – |
| CC(C)C[C@]1(C)NC(=O)[C@H](Cc2ccc3ccccc3c2)NC(=O)[C@H](Cc2ccc(OCCN)cc2)NC(=O)[C@@H]2CC(=O)N[C@H](CCCNC(=O)CC[C@@H](C(=O)N[C@@H](CCN)C(=O)N[C@@H](Cc3cccnc3)C(N)=O)NC1=O)CC(=O)N[C@@H]([C@@H](C)O)C(=O)N[C@@H](Cc1c[nH]c3ccccc13)C(=O)N[C@@H](CCC(N)=O)C(=O)N2 [Compound 13, [{d}bLys](1c)(6c)^†TWQD(6c)[Y(2-aminoethoxy)][2-Nal][2-Me-Leu]E(1c)[Dab][3-(3-Pyridyl)-Ala]-[NH2]] (TWQD[AEF][2Nal][αMeL]E[Dab][3Pal]-NH2; linker N-4-8 via X17) | 1.4 | – | 101 |
| COc1ccc(C[C@@H]2NC(=O)[C@@H]3CCC(=O)N[C@@H](CCCCNC(=O)CC[C@@H](C(=O)N[C@@H](CCCCNC(=O)Cc4ccccn4)C(N)=O)NC(=O)[C@](C)(CC(C)C)NC(=O)[C@H](Cc4ccc5ccccc5c4)NC2=O)C(=O)N[C@@H]([C@@H](C)O)C(=O)N[C@@H](C(C)C)C(=O)N[C@@H](Cc2c[nH]c4ccccc24)C(=O)N[C@@H](CCC(N)=O)C(=O)N3)cc1 [Compound 48, K(1c)(6c)^†TVWQE(6c)[Y(Me)][2-Nal][2-Me-Leu]E(1c)[K(2-pyridylacetyl)]-[NH2]] | 290 | 101 | – |
| CC[C@H](C)[C@@H]1NC(=O)[C@@H]2CCCCNC(=O)CC[C@@H](CC(=O)NCCc3cccnc3)NC(=O)[C@](C)(CC(C)C)NC(=O)[C@H](Cc3ccc4ccccc4c3)NC(=O)[C@H](Cc3ccc(OCCN)cc3)NC(=O)[C@H](CCC(=O)N2)NC(=O)[C@H](CCC(N)=O)NC(=O)[C@H](Cc2c[nH]c3ccccc23)NC(=O)[C@H](C(C)C)NC1=O [Compound 65, K(1c)(6c)^†IVWQE(6c)[Y(2-aminoethoxy)][2-Nal][2-Me-Leu][beta-hGlu](1c)-[NH-2-(pyridin-3-yl)ethyl]] (KIVWQE[AEF][2Nal][αMeL][β3hE]-{NH(2-(3-pyridyl)ethyl)}; lactam 1-10, N-6) | 140 | 99 | – |
| CNC(=O)[C@H](Cc1cccnc1)NC(=O)[C@H](CCN)NC(=O)[C@@H]1CCC(=O)NCC[C@@H]2NC(=O)CC[C@H](NC(=O)[C@H](CCC(N)=O)NC(=O)[C@H](Cc3c[nH]c4ccccc34)NC(=O)[C@H]([C@@H](C)O)NC2=O)C(=O)N[C@@H](Cc2ccc(OCCN)cc2)C(=O)N[C@@H](Cc2ccc3ccccc3c2)C(=O)N[C@@](C)(CC(C)C)C(=O)N1 [Compound 37, [Dab](1c)(6c)^†TWQE(6c)[Y(2-aminoethoxy)][2-Nal][2-Me-Leu]E(1c)[Dab][3-(3-Pyridyl)-Ala]-[NHMe]] | 1.4 | 99 | – |
